Assay results published in article PMC9200803, “Design, synthesis, and biological evaluation of tetrahydroquinolinones and tetrahydroquinolines with anticancer activity” (Scientific Reports, 2022).

Key:
Format in all cases: cell-based, human
HCT-116 cells [1] = experiment: MTT cell viability assay, HCT-116; settings: for IC50: MTT, 72 h, IC50 ± SD
Protocol: To evaluate the effects of the newly synthesized tetrahydroquinolin-2(1H)-one derivatives on cell viability, we treated human colon cancer cells HCT-116, human breast cancer cells MCF-7, and human non-small cell lung cancer cells A-549 with different concentrations of the compounds for 72 h. After incubation, the MTT (3-(4,5-dimethylthiazol-2-yl)-2,5-diphenyltetrazolium bromide) assay was performed and the cytotoxic potency of compounds (expressed in IC50) on the cells was determined in comparison to control cells treated with 1% of dimethyl sulfoxide (DMSO) (Table 1). […] We also compared the activity of 20d and 19b to the reference control drug Cisplatin, which is widely used in chemotherapy.
A-549 (CCL-185) and MCF-7 ([…]) cells were cultured in RPMI-1640 medium, while HCT-116 (CVCL-427), (hMLH1)-deficient (MMR^–) and hMLH1-proficient (MMR^+) RKO cells were cultured in McCoy’s 5A medium. The culture media were supplemented with 10% fetal bovine serum, 2 mM L-glutamine, and antibiotics (penicillin 62.6 µg/ml and streptomycin 40 µg/ml). Cultivation of cell lines was carried out at 37 °C under a humidified atmosphere containing 5% CO2, and the cultures were routinely screened for Mycoplasma contamination. A-549, MCF-7, and HCT-116 cells were obtained from American Type Culture Collection (ATCC), while RKO colon carcinoma cells were a kind gift of Dr Timothy Kinsella (Brown University, USA).
The viability of cells was determined in response to the newly synthesized compounds using the MTT (Sigma-Aldrich) assay. Briefly, cells were seeded into 96-well plates and allowed to attach overnight. Then, cells were exposed to various concentrations of compounds for 24, 48 or 72 h. Negative controls were treated with the same amount of DMSO solvent (1%). After treatment, the MTT solution (0.4 mg/ml) was added to each well and allowed to react with cells for 2–3 h at 37 °C. Next, the medium was removed, the formazan product formed was dissolved in 100 μl of DMSO, and the absorbance was determined at 540 nm using an ASYS UVM340 microplate reader (Biochrom Ltd.). The IC50 value, which represents the concentration of the compound required to inhibit cell growth by 50% compared to vehicle, was calculated using GraphPad Prism 8 software based on the curves plotting survival against dose averaged from at least three independent experiments.

HEK293 cells = experiment: MTT cell viability assay, HEK293; settings: Homo sapiens, HEK293, IC50 ± SD
[2] = test system: hMLH1-deficient (MMR–) RKO cells; experiment: MTT cell viability assay, hMLH1-deficient (MMR–) RKO
Source text: We further attempted to determine whether 20d-induced cancer cell death was related to the induction of ROS production in HCT-116 cells. For this purpose, we pretreated cells with N-acetyl-L-cysteine (NAC), which is a commonly used antioxidant and ROS scavenger. […] HCT-116 cell line has high-frequency microsatellite instability, which is associated with deficient DNA mismatch repair (MMR)[31]. The MMR system corrects DNA-mismatched and insertion–deletion loop bases generated during DNA replication. One of the key proteins involved in the MMR pathway is MLH1, which is mutated or epigenetically silenced in many MMR-deficient (MMR^–) cells, such as HCT-116[33]. To further determine the selectivity for MMR deficiency, we analyzed the cell viability of human MutL homologue 1 (hMLH1)-deficient (MMR^–) and hMLH1-proficient (MMR^+) RKO human colon carcinoma cell lines. The latter was established by transfecting hMLH1 cDNA into MMR^− RKO cell line[34]. In MMR^– RKO cells, the hMLH1 gene promoter was silenced transcriptionally by hypermethylation. […]
The viability of cells was determined in response to the newly synthesized compounds using the MTT (Sigma-Aldrich) assay. […] Next, the medium was removed, the formazan product formed was dissolved in 100 μl of DMSO, and the absorbance was determined at 540 nm using an ASYS UVM340 microplate reader (Biochrom Ltd.). […]

HCT-116 cells [3] = experiment: Colony formation (clonogenic) assay; settings: HCT-116, 24 h pretreatment, 9 days culture
Protocol: A total of 500 HCT-116 cells/well was seeded into six-well plates. After attachment, cells were pretreated with DMSO (1%) or various concentrations of 20d and 19b for 24 h. Following incubation, the medium was changed, and cells were cultured for 9 days. After culturing, cells were washed with phosphate-buffered saline (PBS), fixed with 100% methanol for 30 min, and then stained with 0.5% crystal violet for 15 min. The plates were air-dried, and visible colonies were counted using ImageJ software. The percentage viability of cells was calculated in comparison to the control.

[4] = test system: hMLH1-proficient RKO cells; experiment: ROS level, H2DCFDA probe, MMR-proficient RKO; settings: 1 h of exposure, vs control
Protocol: Then, we confirmed whether the induction of cellular stress by 20d is related to MMR deficiency by exposing MMR-deficient and MMR-proficient cells to the compound for different times and measuring the ROS levels. Our results indicated a greater increase in the level of ROS after 1 h of exposure in 20d-treated MMR-deficient cells than in MMR-proficient cells (54.71 ± 2.70% and 22.27 ± 1.7%, respectively), in comparison to control (Fig. 7).
The […] ROS levels were determined using an H2DCFDA (2′,7′-dichlorodihydrofluorescein diacetate) probe (Thermo Fisher) following the manufacturer’s protocol. […] DMSO (1%, Merck) and 250 μM H2O2 were used as a negative and positive control, respectively. NAC (500 μM, Sigma-Aldrich) was used as an ROS scavenger to confirm the ROS activity. After treatment with 20d and 19b, cells were incubated with H2DCFDA at 37 °C for 30 min. Subsequently, cells were harvested by trypsinization, rinsed with PBS, and stained with 7-AAD (Thermo Fisher). Finally, the stained cells were analyzed by flow cytometry using a Guava easyCyte 8 cell sorter (Merck Millipore) and FlowJo v10 software.

HCT-116 cells [5] = experiment: Acridine orange staining of acidic vesicular organelles; settings: HCT-116, p < 0.01
Source text: Then, to elucidate whether compound 20d can act as an autophagy modulator, we stained cells with acridine orange (AO), a lysotropic agent. AO is a weak base that can permeate the cell membrane in an uncharged state emitting green fluorescence. After protonation, AO forms aggregates in acidic vesicular organelles (AVOs), emitting red fluorescence. […] One of the hallmarks of autophagy is the conjugation of LC3-I with phosphatidylethanolamine, followed by its conversion to autophagosome-associated form LC3-II[39]. Taking this into account, we evaluated the expression of LC3I/II in colon cancer cells after exposure to 20d. Furthermore, we studied the expression of LAMP-1, a well-known lysosomal marker. […] This observation was also confirmed by increased punctate cytosolic LC3 fluorescence intensity when HCT-116 cells were assessed by confocal microscopy (Fig. 8e,g). […] It has been shown that multiple signaling pathways are involved in the modulation of autophagy, including the PI3K/AKT/mTOR pathway, which is especially involved in the stage of autophagosome elongation[41],[42]. In this study, we investigated whether 20d-induced autophagy in HCT-116 cells is related to PI3K/AKT/mTOR signaling. […] This proves that 20d induced autophagy cell death in HCT-116 cells by interfering with the PI3K/AKT/mTOR signaling pathway.

O=C(Nc1cccc(F)c1)OC1CCCc2c(-c3ccccc3)cc(=O)[nH]c21 (stereo not drawn) [Compound 20d, (2-oxo-4-phenyl-5,6,7,8-tetrahydroquinolin-8-yl) N-(3-fluorophenyl)carbamate]
cytotoxic effect after 24 h and 48 h exposure (HCT-116 cells [1]; HCT-116, 10 and 20 µM): slight cytotoxic effect
IC50 (HCT-116 cells [1]; Homo sapiens, HCT-116, 72 h): ~13 µM
IC50 (HCT-116 cells [1]): 12 ± 0.57 µM
IC50 (HEK293 cells): > 50 µM
IC50 ([2]; Homo sapiens, RKO, mean ± SD): 1.21 ± 0.13 µM
fold higher sensitivity of MMR– RKO vs MMR+ RKO cells ([2]; p < 0.001): 3.95 fold
formation of colonies (HCT-116 cells [3]): effectively inhibited the formation of colonies in a concentration-dependent manner
increase in the level of ROS [4]: 22.27 ± 1.7%
increase in red fluorescence (AVOs) in comparison to vehicle (HCT-116 cells [5]): 1.9 fold
